This experiment concerns the target T1, human TRPM8 (Homo sapiens, UniProt Q7Z2W7).
T1 construct: A full-length human TRPM8 gene was amplified from human prostatic tissue total RNA; expressed in transfected cells; host or cells: HEK293
The experiment can be described thus: TRPM8 activating action, fluorescent calcium imaging in HEK293 cell line stably expressing human TRPM8. The class given is cell-based. The settings on record: HEK293 cells expressing human TRPM8; Fluo4 calcium imaging at 32° C.; 1 nM to 100 μM; Hill's equation fit. The protocol: The EC50 value in connection with the TRPM8 activating action of a test sample was measured according to the following procedure.
(1) Production of Cell Line Stably Expressing Human TRPM8
In order to produce a HEK293 cell line stably expressing human TRPM8, cloning of human TRPM8 gene was carried out. A full-length human TRPM8 gene was amplified from human prostatic tissue total RNA (manufactured by Cosmobio Co., Ltd.) using an RT-PCR method.
The PCR product thus obtained was cloned into an entry vector pENTR-D/TOPO (manufactured by Invitrogen, Inc.), and then was sub-cloned into pCDNA3.2-V5/DEST (manufactured by Invitrogen, Inc.), The vector was transduced into HEK293 cells by means of LIPOFECTAMINE 2000 (manufactured by Invitrogen, Inc.). The transduced cells were proliferated in DMEM medium containing 450 μg/mL of G-418 (Promega Corp.) and screened.
Measurement of the activity of TRPM8 transduced into HEK293 cells was carried out by a fluorescent calcium imaging method.
First, the cultured TRPM8 expressing cells were seeded (30,000 cells/well) in a 96-well plate coated with poly-D-lysine (manufactured by BD Biosciences Co.), the cells were incubated overnight at 37° C., and then the culture fluid was removed. Fluo4-AM liquid (manufactured by Dojindo Molecular Technologies, Inc.; CALCIUM KIT II) was added thereto, and the cells were incubated for 30 to 60 minutes at 37° C. Thereafter, the 96-well plate was mounted on a fluorescence plate reader (FDSS3000; manufactured by Hamamatsu Photonics K.K.), and while the temperature inside the apparatus chamber was maintained at 32° C., a fluorescent image made by Fluo4 when excited at an excitation wavelength of 480 nm, was captured at a detection wavelength of 520 nm using a CCD camera.
Measurement was carried out at every one second for 4 minutes in total. 15 seconds after the initiation of measurement, a test sample (prepared by dissolving each of the compounds indicated in the following Table 1 in ethanol) was added through a dispenser equipped in FDSS3000, and the activity of TRPM8 was evaluated based on the change in fluorescence intensity.
(3) Evaluation of TRPM8 Activation
For the TRPM8 activity, the intrinsic fluorescence was excluded using the following formula, so as to eliminate the influence of intrinsic fluorescence caused by the test sample. Fluorescence intensity excluding intrinsic fluorescence(Fsub)=(Fluorescence intensity of TRPM8 expressing cells at each time point)−{(fluorescence intensity of HEK293 cells at each time point)−(fluorescence intensity of HEK293 cells at the time of measurement initiation)}
Furthermore, the TRPM8 activating action induced by each sample was evaluated using the peak of the fluorescence intensity ratio after the addition of the test sample. The fluorescence intensity ratio was calculated using the following formula. Fluorescence intensity ratio=Fsub at each time point/at the time of measurement initiation
The evaluation was carried out using two wells per each treated group, and the average value was used.
The TRPM8 activating action of each test sample was evaluated at a final concentration in the range of 1 nM to 100 μM, and a dose dependent curve approximating Hill's equation by the least square method was determined.
T1 sequence (Q7Z2W7 whole entry): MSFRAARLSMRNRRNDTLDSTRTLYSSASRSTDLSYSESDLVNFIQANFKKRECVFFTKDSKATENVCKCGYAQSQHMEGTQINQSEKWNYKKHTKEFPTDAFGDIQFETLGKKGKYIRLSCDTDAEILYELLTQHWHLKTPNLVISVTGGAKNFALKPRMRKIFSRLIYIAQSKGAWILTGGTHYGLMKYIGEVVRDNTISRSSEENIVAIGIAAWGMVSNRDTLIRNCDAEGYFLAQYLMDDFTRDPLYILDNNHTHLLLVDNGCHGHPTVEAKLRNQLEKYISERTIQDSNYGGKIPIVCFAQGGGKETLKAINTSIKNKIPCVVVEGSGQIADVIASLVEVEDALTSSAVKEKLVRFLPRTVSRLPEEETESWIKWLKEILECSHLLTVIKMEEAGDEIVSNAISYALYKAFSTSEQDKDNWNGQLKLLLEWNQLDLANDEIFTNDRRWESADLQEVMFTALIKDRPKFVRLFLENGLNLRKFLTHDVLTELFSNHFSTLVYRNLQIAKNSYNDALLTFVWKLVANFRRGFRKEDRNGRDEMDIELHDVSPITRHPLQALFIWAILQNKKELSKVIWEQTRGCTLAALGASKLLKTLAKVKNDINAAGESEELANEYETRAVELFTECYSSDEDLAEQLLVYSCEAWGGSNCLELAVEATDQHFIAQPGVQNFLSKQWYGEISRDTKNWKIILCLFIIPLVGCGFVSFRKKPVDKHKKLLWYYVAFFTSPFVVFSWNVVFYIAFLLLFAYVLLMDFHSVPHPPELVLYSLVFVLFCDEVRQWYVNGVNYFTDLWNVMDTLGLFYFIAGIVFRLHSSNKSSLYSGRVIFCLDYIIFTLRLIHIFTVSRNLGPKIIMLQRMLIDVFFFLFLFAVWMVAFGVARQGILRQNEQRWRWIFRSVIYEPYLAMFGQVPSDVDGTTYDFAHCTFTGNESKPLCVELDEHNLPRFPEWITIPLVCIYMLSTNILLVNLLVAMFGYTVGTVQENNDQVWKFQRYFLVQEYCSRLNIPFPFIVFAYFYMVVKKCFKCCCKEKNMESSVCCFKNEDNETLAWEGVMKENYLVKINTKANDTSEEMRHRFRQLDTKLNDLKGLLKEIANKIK
For orientation: EC50 means the concentration needed to bring the measured effect to its halfway point. Consider `C=CCc1cc(OC)c(OC(C)C(OC)c2ccc(O)c(OC)c2)c(OC)c1` (mixture of isomers) [Mixture (18), Δ8′-4-hydroxy-3,3′,5′,7-tetramethoxy-8-O-4′-neolignan], for which the EC50 was 2410 nM.

Turning to `C=CCc1cc(OC)c(O[C@@H](C)[C@H](OCCCC)c2ccc(O)c(OC)c2)c(OC)c1` (relative stereo) [Erythro-form (19), Erythro-Δ8′-7-butoxy-4-hydroxy-3,3′,5′-trimethoxy-8-O-4′-neolignan], the EC50 is 581 nM.

Turning to `C=CCc1cc(OC)c(O[C@@H](C)[C@H](OC(C)=O)c2ccc(O)c(OC)c2)c(OC)c1` (relative stereo) [Erythro-form (23), erythro-Δ8′-7-acetyl-4-hydroxy-3,3′,5′-trimethoxy-8-O-4′-neolignan], the EC50 worked out at 2600 nM.

Take `C=CCc1cc(OC)c(O[C@H](C)[C@H](OCCCC)c2ccc(O)c(OC)c2)c(OC)c1` (relative stereo) [Threo-form (20), Threo-Δ8′-7-butoxy-4-hydroxy-3,3′,5′-trimethoxy-8-O-4′-neolignan]: the EC50 came to 43 nM.

Consider `C=CCc1cc(OC)c(OC(C)C(OCC)c2ccc(O)c(OC)c2)c(OC)c1` (single isomer, unassigned) [Erythro-form (1), erythro-Δ8′-7-ethoxy-4-hydroxy-3,3′,5′-trimethoxy-8-O-4′-neolignan], for which the EC50 amounted to 1570 nM.

For `C=CCc1cc(OC)c(OC(C)C(OCC)c2ccc(O)c(OC)c2)c(OC)c1` (single isomer, unassigned) [Threo-form (2), threo-Δ8′-7-ethoxy-4-hydroxy-3,3′,5′-trimethoxy-8-O-4′-neolignan], the EC50 worked out at 199 nM.

Take `C=CCc1cc(OC)c(O[C@H](C)[C@H](OCC)c2ccc(O)c(OC)c2)c(OC)c1` [7R8R-form (2a), (7R,8R)-Δ8′-7-ethoxy-4-hydroxy-3,3′,5′-trimethoxy-8-O-4′-neolignan]: the EC50 was 610 nM.

As to `C=CCc1cc(OC)c(O[C@@H](C)[C@H](OCC)c2ccc(O)c(OC)c2)c(OC)c1` [7R8S-form (1a), (7R,8S)-Δ8′-7-ethoxy-4-hydroxy-3,3′,5-trimethoxy-8-O-4′-neolignan], the EC50 is 1230 nM.

`C=CCc1cc(OC)c(O[C@H](C)[C@@H](OCC)c2ccc(O)c(OC)c2)c(OC)c1` [7S8R-form (1b), (7S,8R)-Δ8′-7-ethoxy-4-hydroxy-3,3′,5′-trimethoxy-8-O-4′-neolignan]: the EC50 was determined as 981 nM.

Turning to `C=CCc1cc(OC)c(O[C@@H](C)[C@@H](OCC)c2ccc(O)c(OC)c2)c(OC)c1` [7S8S-form (2b), (7S,8S)-Δ8′-7-ethoxy-4-hydroxy-3,3′,5′-trimethoxy-8-O-4′-neolignan], the EC50 turned out to be 87 nM.

With `C=CCc1cc(OC)c(OC(C)C(OCC)c2ccc(O)c(OC)c2)c(OC)c1` (centres unmarked) [Mixture (15), Δ8′-7-ethoxy-4-hydroxy-3,3′,5′-trimethoxy-8-O-4′-neolignan], the EC50 was determined as 309 nM.

Regarding `C=CCc1cc(OC)c(OC(C)C(OC(C)C)c2ccc(O)c(OC)c2)c(OC)c1` (centres unmarked) [Mixture (24), Δ8′-7-isopropoxy-4-hydroxy-3,3′,5′-trimethoxy-8-O-4′-neolignan], the EC50 is 75 nM.

For `C=CCc1cc(OC)c(OC(C)C(OCC(C)C)c2ccc(O)c(OC)c2)c(OC)c1` (centres unmarked) [Mixture (25), Δ8′-7-Isobutoxy-4-hydroxy-3,3′,5′-trimethoxy-8-O-4′-neolignan], the EC50 was determined as 113 nM.

Take `C=CCc1cc(OC)c(OC(C)C(OCCCCCC)c2ccc(O)c(OC)c2)c(OC)c1` (centres unmarked) [Mixture (26), Δ8′-7-Hexoxy-4-hydroxy-3,3′,5′-trimethoxy-8-O-4′-neolignan]: the EC50 was 218 nM.

As for `C=CCc1cc(OC)c(OC(C)C(OCCCCCCCC)c2ccc(O)c(OC)c2)c(OC)c1` (centres unmarked) [Mixture (27), Δ8′-7-Octoxy-4-hydroxy-3,3′,5′-trimethoxy-8-O-4′-neolignan], the EC50 came to 88 nM.

`C=CCc1cc(OC)c(OC(C)C(OCCCCCCCCCC)c2ccc(O)c(OC)c2)c(OC)c1` (centres unmarked) [Mixture (28), Δ8′-7-Decoxy-4-hydroxy-3,3′,5′-trimethoxy-8-O-4′-neolignan]: the EC50 was 61 nM.

In the case of `C=CCc1cc(OC)c(OC(C)C(OC2CCCCC2)c2ccc(O)c(OC)c2)c(OC)c1` (centres unmarked) [Mixture (29), Δ8′-7-Cyclohexoxy-4-hydroxy-3,3′,5′-trimethoxy-8-O-4′-neolignan], the EC50 was 45 nM.

With `C=CCc1cc(OC)c(OC(C)C(OCc2ccccc2)c2ccc(O)c(OC)c2)c(OC)c1` (centres unmarked) [Mixture (30), Δ8′-7-Benzyloxy-4-hydroxy-3,3′,5′-trimethoxy-8-O-4′-neolignan], the EC50 is 144 nM.

As to `C=CCc1cc(OC)c(OC(C)C(OC(C)(C)C)c2ccc(O)c(OC)c2)c(OC)c1` (centres unmarked) [Mixture (31), Δ8′-7-t-Butoxy-4-hydroxy-3,3′,5′-trimethoxy-8-O-4′-neolignan], the EC50 came out at 40 nM.

As to `C=CCc1cc(OC)c(OC(C)C(OCCOCCCC)c2ccc(O)c(OC)c2)c(OC)c1` (centres unmarked) [Mixture (32), Δ8′-7-Oxybutoxyethyl-4-hydroxy-3,3′,5′-trimethoxy-8-O-4′-neolignan], the 50% effective concentration (EC50) was 131 nM.

`C=CCc1ccc(OC(C)Cc2ccc(O)c(OC)c2)c(OC)c1` (centres unmarked) [Mixture (34), Δ8′-4-Hydroxy-3,3′-dimethoxy-8-O-4′-neolignan]: the half-maximal effective concentration (EC50) was 5850 nM.

With `C/C=C/c1ccc(OC(C)C(OCC)c2ccc(O)c(OC)c2)c(OC)c1` (centres unmarked) [Mixture (36), Δ8′-7-ethoxy-4-hydroxy-3,3′-dimethoxy-1′-propenyl-8-O-4′-neolignan], the EC50 is 12200 nM.

In the case of `CCOC(c1ccc(O)c(OC)c1)C(C)Oc1ccccc1OC` (centres unmarked) [Mixture (38), 4-[1-ethoxy-2-(2-methoxyphenoxy)propyl]-2-methoxyphenol], the EC50 stood at 56200 nM.

(Values after patent US9340478B2, “Cooling agent and TRPM8 activator” (Kao Corporation, priority 2011, dated 2016).)
